Measurements as given in ChEMBL document CHEMBL1138732, “Evans Blue is an inhibitor of nuclear factor-kappa B (NF-kappaB)-DNA binding” (Bioorg Med Chem Lett, 2004).

Biological target: T1, Nuclear factor NF-kappa-B p105 subunit (Homo sapiens) (UniProt P19838)
T1 sequence (whole entry): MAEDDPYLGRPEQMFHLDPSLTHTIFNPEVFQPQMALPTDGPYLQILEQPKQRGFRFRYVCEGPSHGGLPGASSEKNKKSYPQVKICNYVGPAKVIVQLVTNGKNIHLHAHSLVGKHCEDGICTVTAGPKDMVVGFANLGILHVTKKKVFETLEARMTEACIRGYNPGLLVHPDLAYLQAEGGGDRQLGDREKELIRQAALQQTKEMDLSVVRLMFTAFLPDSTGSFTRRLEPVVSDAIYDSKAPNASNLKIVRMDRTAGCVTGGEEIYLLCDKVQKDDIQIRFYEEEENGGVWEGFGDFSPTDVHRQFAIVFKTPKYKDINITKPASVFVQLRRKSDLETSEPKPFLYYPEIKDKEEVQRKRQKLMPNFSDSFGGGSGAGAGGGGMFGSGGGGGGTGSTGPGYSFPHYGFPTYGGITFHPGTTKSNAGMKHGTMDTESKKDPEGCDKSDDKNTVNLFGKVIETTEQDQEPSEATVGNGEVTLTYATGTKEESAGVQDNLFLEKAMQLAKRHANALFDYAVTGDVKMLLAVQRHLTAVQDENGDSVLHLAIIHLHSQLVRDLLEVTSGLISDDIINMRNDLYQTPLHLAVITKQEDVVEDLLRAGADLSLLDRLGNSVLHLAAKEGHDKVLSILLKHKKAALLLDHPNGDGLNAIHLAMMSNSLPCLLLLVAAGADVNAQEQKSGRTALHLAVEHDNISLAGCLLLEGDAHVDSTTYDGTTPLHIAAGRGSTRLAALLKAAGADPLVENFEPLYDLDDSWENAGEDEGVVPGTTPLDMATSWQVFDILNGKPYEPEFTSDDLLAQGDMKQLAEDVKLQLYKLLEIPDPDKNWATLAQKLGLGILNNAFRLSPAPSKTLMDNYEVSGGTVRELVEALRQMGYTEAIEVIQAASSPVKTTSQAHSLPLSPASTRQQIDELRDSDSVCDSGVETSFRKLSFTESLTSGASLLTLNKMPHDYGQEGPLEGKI
Experiment: inhibitory effect on the DNA binding of Nuclear factor kappa B; Active

For `Cc1cc(-c2ccc(/N=N/c3ccc4c(S(=O)(=O)O)cc(S(=O)(=O)O)c(N)c4c3O)c(C)c2)ccc1/N=N/c1ccc2c(S(=O)(=O)O)cc(S(=O)(=O)O)c(N)c2c1O`, the Concentration was 100 µM.
